Measured values as given in PMC4832243, “Discovery of Potent VEGFR-2 Inhibitors based on Furopyrimidine and Thienopyrimidne Scaffolds as Cancer Targeting Agents” (Scientific Reports, 2016).

Key:
A498 = experiment: NCI 60 cell line panel (SRB), A498; type: cell-based; conditions: Homo sapiens; A498, Renal Cancer; single dose of 10 μM; read-out: Cell Growth Percent
RPMI-8226 = experiment: NCI 60 cell line panel (SRB), RPMI-8226; type: cell-based; conditions: Homo sapiens; RPMI-8226, Leukemia; single dose of 10 μM; read-out: Cell Growth Percent
T-47D = experiment: NCI 60 cell line panel (SRB), T-47D; type: cell-based; conditions: Homo sapiens, T47D, Breast Cancer, single dose of 10 μM, read-out: Cell Growth Percent
HOP-92 = experiment: NCI 60 cell line panel (SRB), HOP-92; type: cell-based; conditions: Homo sapiens; HOP-92, Non-Small Cell Lung Cancer; single dose of 10 μM; read-out: Cell Growth Percent
HL-60(TB) = experiment: NCI 60 cell line panel (SRB), HL-60(TB); type: cell-based; conditions: Homo sapiens, Leukemia, single dose of 10 μM, read-out: Cell Growth Percent
SR = experiment: NCI 60 cell line panel (SRB), SR; type: cell-based; conditions: Homo sapiens, Leukemia, single dose of 10 μM, read-out: Cell Growth Percent
ACHN = experiment: NCI 60 cell line panel (SRB), ACHN; type: cell-based; conditions: Homo sapiens, Renal Cancer, single dose of 10 μM, read-out: Cell Growth Percent
UACC-62 = experiment: NCI 60 cell line panel (SRB), UACC-62; type: cell-based; conditions: Homo sapiens; UACC-62, Melanoma; single dose of 10 μM; read-out: Cell Growth Percent
UACC-257 = experiment: NCI 60 cell line panel (SRB), UACC-257; type: cell-based; conditions: Homo sapiens; UACC-257, Melanoma; single dose of 10 μM; read-out: Cell Growth Percent
LOX IMVI = experiment: NCI 60 cell line panel (SRB), LOX IMVI; type: cell-based; conditions: Homo sapiens, Melanoma, single dose of 10 μM, read-out: Cell Growth Percent
NCI-H460 = experiment: NCI 60 cell line panel (SRB), NCI-H460; type: cell-based; conditions: Homo sapiens; NCI-H460, Non-Small Cell Lung Cancer; single dose of 10 μM; read-out: Cell Growth Percent
OVCAR-4 = experiment: NCI 60 cell line panel (SRB), OVCAR-4; type: cell-based; conditions: Homo sapiens; OVCAR-4, Ovarian Cancer; single dose of 10 μM; read-out: Cell Growth Percent
OVCAR-8 = experiment: NCI 60 cell line panel (SRB), OVCAR-8; type: cell-based; conditions: Homo sapiens; OVCAR-8, Ovarian Cancer; single dose of 10 μM; read-out: Cell Growth Percent
HT29 = experiment: NCI 60 cell line panel (SRB), HT29; type: cell-based; conditions: Homo sapiens, HT-29; HT29, Colon Cancer; single dose of 10 μM; read-out: Cell Growth Percent
IGROV1 = experiment: NCI 60 cell line panel (SRB), IGROV1; type: cell-based; conditions: Homo sapiens, IGROV-1; IGROV1, Ovarian Cancer; single dose of 10 μM; read-out: Cell Growth Percent
SK-OV-3 = experiment: NCI 60 cell line panel (SRB), SK-OV-3; type: cell-based; conditions: Homo sapiens; SK-OV-3, Ovarian Cancer; single dose of 10 μM; read-out: Cell Growth Percent
NCI/ADR-RES = experiment: NCI 60 cell line panel (SRB), NCI/ADR-RES; type: cell-based; conditions: Homo sapiens, Ovarian Cancer, single dose of 10 μM, read-out: Cell Growth Percent
MALME-3M = experiment: NCI 60 cell line panel (SRB), MALME-3M; type: cell-based; conditions: Homo sapiens, Melanoma, single dose of 10 μM, read-out: Cell Growth Percent
MDA-MB-468 = experiment: NCI 60 cell line panel (SRB), MDA-MB-468; type: cell-based; conditions: Homo sapiens; MDA-MB-468, Breast Cancer; single dose of 10 μM; read-out: Cell Growth Percent
SN12C = experiment: NCI 60 cell line panel (SRB), SN12C; type: cell-based; conditions: Homo sapiens, Renal Cancer, single dose of 10 μM, read-out: Cell Growth Percent
A549/ATCC = experiment: NCI 60 cell line panel (SRB), A549/ATCC; type: cell-based; conditions: Homo sapiens, Non-Small Cell Lung Cancer, single dose of 10 μM, read-out: Cell Growth Percent
RXF 393 = experiment: NCI 60 cell line panel (SRB), RXF 393; type: cell-based; conditions: Homo sapiens; RXF 393, Renal Cancer; single dose of 10 μM; read-out: Cell Growth Percent
SK-MEL-28 = experiment: NCI 60 cell line panel (SRB), SK-MEL-28; type: cell-based; conditions: Homo sapiens; SK-MEL-28, Melanoma; single dose of 10 μM; read-out: Cell Growth Percent
DU-145 = experiment: NCI 60 cell line panel (SRB), DU-145; type: cell-based; conditions: Homo sapiens; DU-145, Prostate Cancer; single dose of 10 μM; read-out: Cell Growth Percent
SNB-75 = experiment: NCI 60 cell line panel (SRB), SNB-75; type: cell-based; conditions: Homo sapiens; SNB-75, CNS Cancer; single dose of 10 μM; read-out: Cell Growth Percent
SF-268 = experiment: NCI 60 cell line panel (SRB), SF-268; type: cell-based; conditions: Homo sapiens; SF-268, CNS Cancer; single dose of 10 μM; read-out: Cell Growth Percent
M14 = experiment: NCI 60 cell line panel (SRB), M14; type: cell-based; conditions: Homo sapiens; M14, Melanoma; single dose of 10 μM; read-out: Cell Growth Percent
KM12 = experiment: NCI 60 cell line panel (SRB), KM12; type: cell-based; conditions: Homo sapiens; KM12, Colon Cancer; single dose of 10 μM; read-out: Cell Growth Percent
OVCAR-5 = experiment: NCI 60 cell line panel (SRB), OVCAR-5; type: cell-based; conditions: Homo sapiens; OVCAR-5, Ovarian Cancer; single dose of 10 μM; read-out: Cell Growth Percent
MOLT-4 = experiment: NCI 60 cell line panel (SRB), MOLT-4; type: cell-based; conditions: Homo sapiens; MOLT-4, Leukemia; single dose of 10 μM; read-out: Cell Growth Percent
HS 578T = experiment: NCI 60 cell line panel (SRB), HS 578T; type: cell-based; conditions: Homo sapiens, Breast Cancer, single dose of 10 μM, read-out: Cell Growth Percent
VEGFR-2 (KDR) = molecular target: T1, VEGFR-2 (KDR) (Homo sapiens, UniProt P35968); experiment: In vitro VEGFR-2 tyrosine kinase activity (Kinase-Glo Plus luminescence, BPS Bioscience); type: biochemical; conditions: for inhibition at 10 µM: single dose concentration of 10 μM
T1 construct: purchased BPS Bioscience 40301

SK-MEL-5 = experiment: NCI 60 cell line panel (SRB), SK-MEL-5; type: cell-based; conditions: Homo sapiens; SK-MEL-5, Melanoma; single dose of 10 μM; read-out: Cell Growth Percent
HCT-15 = experiment: NCI 60 cell line panel (SRB), HCT-15; type: cell-based; conditions: Homo sapiens; HCT-15, Colon Cancer; single dose of 10 μM; read-out: Cell Growth Percent

T1 sequence (P35968 20-1356): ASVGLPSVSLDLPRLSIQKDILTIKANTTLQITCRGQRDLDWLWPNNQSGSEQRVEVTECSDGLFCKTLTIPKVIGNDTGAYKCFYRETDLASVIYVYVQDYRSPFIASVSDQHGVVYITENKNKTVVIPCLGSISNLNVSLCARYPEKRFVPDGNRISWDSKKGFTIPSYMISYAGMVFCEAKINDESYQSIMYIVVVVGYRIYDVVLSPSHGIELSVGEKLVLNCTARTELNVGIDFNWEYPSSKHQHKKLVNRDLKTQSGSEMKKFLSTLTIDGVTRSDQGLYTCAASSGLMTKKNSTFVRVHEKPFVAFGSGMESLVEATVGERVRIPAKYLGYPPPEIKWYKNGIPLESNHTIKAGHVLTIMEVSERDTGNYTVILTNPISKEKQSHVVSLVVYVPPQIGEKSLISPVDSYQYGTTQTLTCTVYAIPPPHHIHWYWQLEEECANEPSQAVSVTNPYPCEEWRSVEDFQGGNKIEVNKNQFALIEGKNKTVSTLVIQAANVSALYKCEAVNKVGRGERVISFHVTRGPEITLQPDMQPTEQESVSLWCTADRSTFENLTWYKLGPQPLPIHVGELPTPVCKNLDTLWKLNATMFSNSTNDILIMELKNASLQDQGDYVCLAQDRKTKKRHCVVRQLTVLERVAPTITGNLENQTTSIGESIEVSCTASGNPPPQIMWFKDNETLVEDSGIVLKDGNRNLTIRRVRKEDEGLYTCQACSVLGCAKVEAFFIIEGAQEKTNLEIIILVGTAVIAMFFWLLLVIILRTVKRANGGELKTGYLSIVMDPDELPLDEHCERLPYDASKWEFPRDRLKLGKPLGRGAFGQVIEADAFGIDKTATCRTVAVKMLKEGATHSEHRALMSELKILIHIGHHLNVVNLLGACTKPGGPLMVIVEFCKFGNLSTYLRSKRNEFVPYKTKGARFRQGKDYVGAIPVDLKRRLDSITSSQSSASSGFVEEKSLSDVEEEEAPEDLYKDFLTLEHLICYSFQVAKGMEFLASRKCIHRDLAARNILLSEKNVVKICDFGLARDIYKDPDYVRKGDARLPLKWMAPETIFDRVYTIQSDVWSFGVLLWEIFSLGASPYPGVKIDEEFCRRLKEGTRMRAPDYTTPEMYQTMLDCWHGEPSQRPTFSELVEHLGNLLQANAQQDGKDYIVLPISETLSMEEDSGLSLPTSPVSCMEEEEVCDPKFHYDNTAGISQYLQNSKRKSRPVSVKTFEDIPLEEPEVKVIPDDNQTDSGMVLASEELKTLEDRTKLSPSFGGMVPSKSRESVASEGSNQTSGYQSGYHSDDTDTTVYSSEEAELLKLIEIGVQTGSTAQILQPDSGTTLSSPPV

| Structure (SMILES) | activity at 10 µM (A498) [%] | activity at 10 µM (RPMI-8226) [%] | activity at 10 µM (T-47D) [%] | activity at 10 µM (HOP-92) [%] | activity at 10 µM (HL-60(TB)) [%] | activity at 10 µM (SR) [%] | activity at 10 µM (ACHN) [%] | activity at 10 µM (UACC-62) [%] | activity at 10 µM (UACC-257) [%] | activity at 10 µM (LOX IMVI) [%] | activity at 10 µM (NCI-H460) [%] | activity at 10 µM (OVCAR-4) [%] | activity at 10 µM (OVCAR-8) [%] | activity at 10 µM (HT29) [%] | activity at 10 µM (IGROV1) [%] | activity at 10 µM (SK-OV-3) [%] | activity at 10 µM (NCI/ADR-RES) [%] | activity at 10 µM (MALME-3M) [%] | activity at 10 µM (MDA-MB-468) [%] | activity at 10 µM (SN12C) [%] | also measured |
| --- | --- | --- | --- | --- | --- | --- | --- | --- | --- | --- | --- | --- | --- | --- | --- | --- | --- | --- | --- | --- | --- |
| COc1cccc(NC(=O)Nc2ccc(Oc3ncnc4sc5c(c34)CCCC5)cc2)c1 [Compound 21c] | 67.8 | 46.7 | 41.7 | 79 | 106 | 50.9 | 75 | 70.9 | 100 | 61.5 | 65.7 | 56.6 | 89.9 | 54.8 | 88.7 | 78.2 | 70.5 | 88.5 | 69.3 | 78.2 | activity at 10 µM (A549/ATCC): 61.2%; activity at 10 µM (RXF 393): 74%; activity at 10 µM (SK-MEL-28): 83.7%; activity at 10 µM (DU-145): 82.4%; activity at 10 µM (SNB-75): 50.3%; activity at 10 µM (SF-268): 72%; activity at 10 µM (M14): 67.3%; activity at 10 µM (KM12): 27.5%; activity at 10 µM (OVCAR-5): 105%; activity at 10 µM (MOLT-4): 46.9%; activity at 10 µM (HS 578T): 60.9%; IC50 (VEGFR-2 (KDR); 5 concentrations 1 nM - 10 μM): 47 nM; activity at 10 µM (SK-MEL-5): 63.6%; activity at 10 µM (HCT-15): 67.1% |
| CCOC(=O)c1c(C)oc2ncnc(Nc3ccc(NC(=O)Nc4ccc(CC)cc4)cc3)c12 [Compound 15i] | 109 | 95 | 78.2 | 94.3 | 103 | 81.6 | 98.8 | 108 | 111 | 100 | 106 | 105 | 112 | 103 | 110 | 88.2 | 97.2 | 101 | 128 | 107 | activity at 10 µM (A549/ATCC): 89.2%; activity at 10 µM (RXF 393): 98.2%; activity at 10 µM (SK-MEL-28): 105%; activity at 10 µM (DU-145): 103%; activity at 10 µM (SNB-75): 80.5%; activity at 10 µM (SF-268): 103%; activity at 10 µM (M14): 99.9%; activity at 10 µM (KM12): 103%; activity at 10 µM (OVCAR-5): 107%; activity at 10 µM (MOLT-4): 98.6%; activity at 10 µM (HS 578T): 97.7%; inhibition at 10 µM (VEGFR-2 (KDR)): 23%; activity at 10 µM (SK-MEL-5): 93.7%; activity at 10 µM (HCT-15): 105% |
| O=C(Nc1ccc(Cl)cc1)Nc1ccc(Oc2ncnc3sc4c(c23)CCCC4)cc1 [Compound 21d] | 70.1 | 68.8 | 73.3 | 102 | 100 | 72.4 | 95.4 | 73.2 | 91.4 | 84.8 | 82.1 | 93.6 | 94.7 | 86.4 | 108 | 90.8 | 85 | 98.9 | 103 | 86.5 | activity at 10 µM (A549/ATCC): 66.6%; activity at 10 µM (RXF 393): 87.7%; activity at 10 µM (SK-MEL-28): 92.6%; activity at 10 µM (DU-145): 91.9%; activity at 10 µM (SNB-75): 70.8%; activity at 10 µM (SF-268): 87%; activity at 10 µM (M14): 87%; activity at 10 µM (KM12): 69.1%; activity at 10 µM (OVCAR-5): 113%; activity at 10 µM (MOLT-4): 72%; activity at 10 µM (HS 578T): 74.7%; inhibition at 10 µM (VEGFR-2 (KDR)): 46%; activity at 10 µM (SK-MEL-5): 78.4%; activity at 10 µM (HCT-15): 91.6% |
| CCOC(=O)c1c(C)oc2ncnc(Nc3ccc(C(=O)NCCc4ccccc4)cc3)c12 [Compound 14e] | 77.5 | 84.5 | 65.1 | 61.5 | 87.6 | 89.2 | 88.7 | 94.9 | 79.6 | 75.2 | 82.9 | 45.5 | 76.6 | 58.8 | 102 | 85.5 | 76.9 | 89.5 | 90.7 | 99.3 | activity at 10 µM (A549/ATCC): 56.6%; activity at 10 µM (RXF 393): 71.7%; activity at 10 µM (SK-MEL-28): 87.8%; activity at 10 µM (DU-145): 82.1%; activity at 10 µM (SNB-75): 7%; activity at 10 µM (SF-268): 74.1%; activity at 10 µM (M14): 81.2%; activity at 10 µM (KM12): 89%; activity at 10 µM (OVCAR-5): 110%; activity at 10 µM (MOLT-4): 105%; activity at 10 µM (HS 578T): 51.2%; inhibition at 10 µM (VEGFR-2 (KDR)): 10%; activity at 10 µM (SK-MEL-5): 85.6%; activity at 10 µM (HCT-15): 92.2% |
| O=C(Nc1ccc(Nc2ncnc3sc4c(c23)CCCC4)cc1)Nc1cccc(Cl)c1 [Compound 20d] | 86.7 | 106 | 100 | 102 | 98.9 | 102 | 99.7 | 106 | 93.8 | 103 | 110 | 101 | 112 | 87.8 | 113 | 98.6 | 113 | 97.9 | 110 | 102 | activity at 10 µM (A549/ATCC): 74.2%; activity at 10 µM (RXF 393): 115%; activity at 10 µM (SK-MEL-28): 104%; activity at 10 µM (DU-145): 110%; activity at 10 µM (SNB-75): 94.4%; activity at 10 µM (SF-268): 106%; activity at 10 µM (M14): 99.3%; activity at 10 µM (KM12): 105%; activity at 10 µM (OVCAR-5): 108%; activity at 10 µM (MOLT-4): 92.3%; activity at 10 µM (HS 578T): 103%; inhibition at 10 µM (VEGFR-2 (KDR)): 19%; activity at 10 µM (SK-MEL-5): 98.1%; activity at 10 µM (HCT-15): 104% |
